Assay [1] has as its system PC3 prostate cancer cell line. Kind of assay: Cell Titer Glo cell viability assay. The assay is classed as cell-based. Conditions: Homo sapiens, PC-3, PC3 cells. The source says:
In this series of cell viability experiments, we used the highly sensitive Cell Titer Glo reagents from Promega in PC3 prostate cancer cell line. We compared the parental compound C3 effect on reducing cell viability with the best derivative compound, DBG-02-09.
(In ATP-based viability assays light output follows the ATP content of the culture.)

Assay [2] concerns PC-3 androgen independent metastatic prostate cancer cells. Kind of assay: Cell viability screen (CCK-8), PC-3 cells. The assay is classed as cell-based. Conditions: CCK-8, 96 hours, read-out: IC50, inhibition of cell viability. The procedure:
FIGS. 2A-2H. Dose response curves. Does response curves for cell lines treated with 6, 10.5, 18.6, 32.4, 57.5 and 100 μM of compound (log) for 96 hours using % cell viability derived from CCK-8 absorbance readings at 450 nm (n=3, mean±SEM). A DMSO equivalent control (n=2±SEM) was also included for each cell line tested: Ea.hy.926 endothelial cells (Endo), LNCaP androgen dependent metastatic prostate cancer cells, TC2-Ras mouse prostate cancer cells, PC-3 androgen independent metastatic prostate cancer cells, and SH-SY5Y neruoblastoma cells. […]
Cell Viability Screen. […] Cell viability was measured by using the cell counting kit-8 (CCK-8, Dojindo). […] CCK-8 absorbance was measured at 450 nm using a GloMax Multimode Reader (Promega). Readings were performed the day after seeding to normalize for variations in cell seeding and after 96 hours of compound treatment. After each reading, CCK-8 media was removed and replaced with media containing compound as described previously. […] As described previously, an initial baseline CCK-8 reading was performed at 24 hours post seeding to correct for variations in seeding density. First, 450 nm values for each well were subtracted from media only readings to correct for baseline absorbance. Then, the 96 hour readings were normalized to their respective 24 hour readings to control for seeding variation. […]

Where two headings read alike, the source gives them in different places.

By IC50 is commonly meant the concentration needed to halve the response being measured.

With `O=C(c1cc(F)cc2c1OCOC2)N1CCN(C2c3ccccc3-c3ccccc32)CC1` [Compound C3, [4-(9h-fluoren-9-yl)piperazino](6-fluoro-4h-1,3-benzodioxin-8-yl)methanone], the half-inhibitory concentration (IC50) in assay [1] was 16.7 ± 7.6 µM; in assay [2], roughly 1 µM; in assay [2] (Homo sapiens, PC-3, 96 h), roughly 0.8 µM.

The record behind these values is patent US11022604B2, “Dock derived compound against laminin receptor (37 LR) and uses thereof” (Purdue Research Foundation, priority 2017, dated 2021).
